According to patent US20210392890A1, “COMPOSITIONS COMPRISING PYRIDINE CARBOXYLATE HERBICIDES AND PLANT GROWTH REGULATORS” (Corteva Agriscience LLC, priority 2018, published 2021):
Where two headings read alike, the source gives them in different places.

What was measured:
Format in all cases: in vivo
[1] = system: Lamium purpureum (purple deadnettle); assay: Greenhouse postemergence herbicidal effect on LAMPU
From the text: (§1) Seeds of the desired test plant species were planted in a 90:10% v/v (volume/volume) mixture of PRO-MIX® BX (Premier Tech Horticulture, Quakertown, Pa., USA) and PROFILE® GREENS GRADE™ (Profile Products LLC, Buffalo Grove, Ill., USA) planting mixture, which typically has a pH of 5.2 to 6.2 and an organic matter content of at least 50 percent, in plastic pots with a surface area of 103.2 square centimeters (cm^2). In some aspects, to help ensure good germination and healthy plants, a fungicide treatment and/or other chemical or physical treatment was applied. The plants were grown for 7-36 days (d) in a greenhouse with an approximate 14-hour (h) photoperiod which was maintained at about 23° C. during the day and 22° C. during the night. Nutrients and water were added on a regular basis and supplemental lighting was provided with overhead metal halide 1000-Watt lamps as necessary. The plants were employed for testing when they reached the second or third true leaf stage.
(§2) Emulsifiable concentrates of each of each pyridine carboxylate herbicide (Compound A or Compound B) were prepared at 100 grams acid equivalent per liter (g ae/L). The emulsifiable concentrates also included a safener, cloquintocet-mexyl, at 120 grams active ingredient per liter (g ai/L). […]
(§3) The treated plants and control plants were placed in a greenhouse as described above and watered by sub-irrigation to prevent wash-off of the test compounds. After 20-22 d, the condition of the test plants as compared with that of the control plants was determined visually and scored on a scale of 0 to 100 percent where 0 corresponds to no injury and 100 corresponds to complete kill.

rice (ORYSA) = conditions: Ethephon 0 g/ha
From the text: as §1, §2
as §3, with “kill. […]” for “kill.”

[2] = system: Sinapis arvensis (wild mustard); assay: Greenhouse postemergence herbicidal effect on SINAR
From the text: as §1, §2, §3

[3] = system: Salsola kali (Russian thistle); assay: Greenhouse postemergence herbicidal effect on SASKR
From the text: as §1, §2, §3

[4] = system: Matricaria chamomilla (wild chamomile); assay: Greenhouse postemergence herbicidal effect on MATCH
From the text: as §1, §2, §3

With `N#CCOC(=O)c1nc(-c2ccc3cc[nH]c3c2F)c(F)c(N)c1Cl` [Compound A, cyanomethyl 4-amino-3-chloro-5-fluoro-6-(7-fluoro-1H-indol-6-yl)pyridine-2-carboxylate] the “% visual injury Obs” value ([1]; herbicide 7.5 g ae/ha alone) was 68%, the “% visual injury Obs” value ([1]; herbicide 10 g ae/ha alone) was 73% and the “% visual injury Obs” value ([1]; herbicide 15 g ae/ha alone) was 73%. For the same compound, the “Herbicidal Effects (% visual injury) ORYSA Obs” value (rice (ORYSA); Compound A 7.5 g/ha) was 15%, the “Herbicidal Effects (% visual injury) ORYSA Obs” value (rice (ORYSA); Compound A 10 g/ha) was 18% and the “% visual injury Obs” value ([2]; herbicide 7.5 g ae/ha alone) was 88%. The “% visual injury Obs” value ([2]; herbicide 10 g ae/ha alone) was 91%, the “% visual injury Obs” value ([2]; herbicide 15 g ae/ha alone) was 91% and the “% visual injury Obs” value ([3]; herbicide 7.5 g ae/ha alone) was 50%. The “% visual injury Obs” value ([3]; herbicide 10 g ae/ha alone) was 60%, the “% visual injury Obs” value ([3]; herbicide 15 g ae/ha alone) was 63% and the “% visual injury Obs” value ([4]; herbicide 7.5 g ae/ha alone) was 23%. For the same compound, the “% visual injury Obs” value ([4]; herbicide 10 g ae/ha alone) was 35% and the “% visual injury Obs” value ([4]; herbicide 15 g ae/ha alone) was 45%.
